Data as given in publication PMC6327044, “A chemical biology screen identifies a vulnerability of neuroendocrine cancer cells to SQLE inhibition” (Nature Communications, 2019).

Legend:
Test in all cases: cells
Set-up in all cases: species or system panel of 482 human cancer cell lines; ATPLite luminescence growth inhibition after treatment, nine-point dilution curve, 482 cancer cell lines, 384-well
Settings in all cases: 72 h, recommended growth medium
[1] = system: JHH6_LIVER
Protocol: (§1) Cells were seeded in recommended growth media in black 384-well tissue culture treated plates at 500 cells per well. Cells were equilibrated in assay plates via centrifugation and placed in incubators for 24 h before treatment. […] Treated assay plates were incubated with compounds for 72 h and subsequently were developed for endpoint analysis using ATPLite. Each compound was assessed using a nine-point dilution curve. Cells were defined as sensitive to a given compound based on GI75 < 2 μM with manual quality control of curve fit. GI75 is defined as a drug concentration that causes a 75% reduction in assay readout relative to dimethyl sulfoxide (DMSO)-treated controls. To identify novel cancer vulnerabilities, we screened a panel of 482 cell lines with a diverse set of metabolic inhibitors. […] Given that SCLC is thought to arise from neuroendocrine cells in the lung[9], we tested the NB-598 sensitivity in a panel of 42 SCLC cell lines. We calculated a quantitative metric of sensitivity for each cell line based on the area under the curve (AUC) of the mu/mu.max curve to more accurately capture the potency and extent of NB-598 effects. […] We categorized the SCLC cell lines as sensitive (5/42), moderate (11/42), and insensitive (26/42) (Fig. 1c and Supplementary Data 2) and focused all subsequent efforts on this indication. […] To further understand the patterns of sensitivity, we conducted RNA sequencing (RNA-Seq; Supplementary Data 3) and proteomic (Supplementary Data 4) characterization of the SCLC panel to identify unbiased expression signatures associated with enhanced NB-598 response (Supplementary Fig. 1 and Supplementary Fig. 2). Given the growing understanding that SCLC tumors can be further subdivided based on the status of lineage-defining transcription factors, ASLC1 and NEUROD1, we specifically investigated NB-598 response as the function of ASCL1 and NEUROD1 expression levels. […] To further dissect the NB-598 response within the ASCL1-high/NEUROD-low subset of 25 cell lines, we identified RNA-Seq and proteomics expression signatures associated with NB

[2] = system: SKNBE2_AUTONOMIC_GANGLIA
Protocol: as §1

[3] = system: HCT8_LARGE_INTESTINE
Protocol: as §1

[4] = system: KPNRTBM1_AUTONOMIC_GANGLIA
Protocol: as §1

[5] = system: HGC27_STOMACH
Protocol: as §1

[6] = system: SUDHL5_HAEMATOPOIETIC_AND_LYMPHOID_TISSUE
Protocol: as §1

[7] = system: NCIH1623_LUNG
Protocol: as §1

[8] = system: HEP3B217_LIVER
Protocol: as §1

[9] = system: SNU175_LARGE_INTESTINE
Protocol: as §1

[10] = system: TE4_OESOPHAGUS
Protocol: as §1

[11] = system: NCIH661_LUNG
Protocol: as §1

[12] = system: NCIH2126_LUNG
Protocol: as §1

[13] = system: HT115_LARGE_INTESTINE
Protocol: as §1

[14] = system: NCIH810_LUNG
Protocol: as §1

[15] = system: SW1116_LARGE_INTESTINE
Protocol: as §1

[16] = system: NCIH1869_LUNG
Protocol: as §1

[17] = system: NCIH2171_LUNG
Protocol: as §1

GI50 [2]: 0.0203 µM | GI50 [3]: 10.7 µM | GI50 [6]: 0.0255 µM | GI50 [8]: 9.96 µM | GI50 [9]: 0.243 µM | GI50 [15]: 19.1 µM
SMILES: CCN(C/C=C/C#CC(C)(C)C)Cc1cccc(OCc2cc(-c3ccsc3)cs2)c1 [NB-598]
GI50 [1]: 8.89 µM | GI50 [4]: 3.49 µM | GI50 [5]: 14.8 µM | GI50 [7]: 0.0194 µM | GI50 [10]: 19.5 µM | GI50 [11]: 28.9 µM | GI50 [12]: 0.144 µM | GI50 [13]: 2.72 µM | GI50 [14]: 0.00733 µM | GI50 [16]: 0.0152 µM | GI50 [17]: 2.27 µM
